Measurements published in US20250000843A1, “LIGNAN-INSPIRED COMPOUNDS, METHODS OF MAKING, AND USING THEREOF” (IOWAIBO, INC., priority 2023, published 2025).

What was measured:
[1] = target: T1, telomerase (Homo sapiens, UniProt O14746); assay: Q-TRAP telomerase activity in MCF7 breast cancer cells; assay type: cell-based; design: allow the enzymatic addition of telomeric DNA repeats by endogenous telomerase; endogenous in cells
[2] = target: T1, telomerase; assay: Q-TRAP telomerase activity in PC3 prostate cancer cells; assay type: cell-based; design: allow the enzymatic addition of telomeric DNA repeats by endogenous telomerase; endogenous in cells; host or cells: PC3 prostate cancer cells (protein extract of lysed cell pellets); key to Significance of RTA difference vs. control: No: non-significant; Yes (*): p < 0.05; Yes (**): p < 0.01; Yes (***): p < 0.001; Yes (****): p < 0.0001
Method: The general mechanism of the Q-TRAP technique involves cellular pellets being lysed for protein extraction which is then subsequently quantified and stored under specific conditions to avoid protein degradation. Protein obtained in the process was used within 72 hours and samples were stored at 4° C. Telomerase protein extracts are then incubated with a specific oligonucleotide substrate to allow the enzymatic addition of telomeric DNA repeats by endogenous telomerase. Following the enzymatic reaction, telomerase extension products are then amplified and quantified by real-time qPCR. In real time PCR, a positive reaction is detected by accumulation of a fluorescent signal. The Ct (cycle threshold) is defined as the number of cycles required for fluorescence to cross the threshold (i.e.: exceeds background levels). […] Data are reported as relative telomerase activity (RTA). […] Telomeric repeat amplification protocol (TRAP) was modified for quantitative real-time PCR (Q-TRAP) and was used to determine the effect of dibenzyl butyl lactone derivative on telomerase activity in prostate cancer cell. The same methods as used in Example 3 were employed. The same abbreviation scheme as presented in Table 7 is used throughout this example as well.

T1 sequence (O14746 whole entry): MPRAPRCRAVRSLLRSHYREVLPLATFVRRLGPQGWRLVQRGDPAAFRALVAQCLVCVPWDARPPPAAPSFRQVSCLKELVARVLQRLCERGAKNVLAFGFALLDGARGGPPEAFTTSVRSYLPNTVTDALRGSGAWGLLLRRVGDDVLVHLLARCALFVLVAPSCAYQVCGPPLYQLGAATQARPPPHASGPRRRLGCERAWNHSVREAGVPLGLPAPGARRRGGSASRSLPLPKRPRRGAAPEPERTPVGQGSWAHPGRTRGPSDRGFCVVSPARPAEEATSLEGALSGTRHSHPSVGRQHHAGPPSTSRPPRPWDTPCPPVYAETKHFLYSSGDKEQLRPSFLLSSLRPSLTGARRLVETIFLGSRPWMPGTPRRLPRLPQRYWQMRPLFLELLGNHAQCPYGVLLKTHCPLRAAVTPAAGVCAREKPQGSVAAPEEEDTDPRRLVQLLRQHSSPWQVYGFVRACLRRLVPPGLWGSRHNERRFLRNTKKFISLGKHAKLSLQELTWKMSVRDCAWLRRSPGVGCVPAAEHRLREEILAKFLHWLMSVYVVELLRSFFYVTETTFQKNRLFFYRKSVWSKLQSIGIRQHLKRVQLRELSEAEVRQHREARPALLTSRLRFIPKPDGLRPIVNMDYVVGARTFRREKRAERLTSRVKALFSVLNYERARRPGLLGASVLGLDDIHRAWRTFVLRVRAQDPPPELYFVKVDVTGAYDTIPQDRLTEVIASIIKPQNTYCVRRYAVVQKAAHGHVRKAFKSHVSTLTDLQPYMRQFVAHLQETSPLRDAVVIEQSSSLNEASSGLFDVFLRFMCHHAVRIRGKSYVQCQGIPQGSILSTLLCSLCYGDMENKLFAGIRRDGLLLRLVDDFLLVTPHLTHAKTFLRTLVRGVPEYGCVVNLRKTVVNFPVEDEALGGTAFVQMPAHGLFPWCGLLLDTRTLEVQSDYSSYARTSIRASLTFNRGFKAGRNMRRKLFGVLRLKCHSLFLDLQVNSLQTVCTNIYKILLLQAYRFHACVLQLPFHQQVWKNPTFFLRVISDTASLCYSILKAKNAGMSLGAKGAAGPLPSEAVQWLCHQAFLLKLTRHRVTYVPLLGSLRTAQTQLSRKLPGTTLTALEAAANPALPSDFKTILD
T1 sequence (O60832 whole entry partner): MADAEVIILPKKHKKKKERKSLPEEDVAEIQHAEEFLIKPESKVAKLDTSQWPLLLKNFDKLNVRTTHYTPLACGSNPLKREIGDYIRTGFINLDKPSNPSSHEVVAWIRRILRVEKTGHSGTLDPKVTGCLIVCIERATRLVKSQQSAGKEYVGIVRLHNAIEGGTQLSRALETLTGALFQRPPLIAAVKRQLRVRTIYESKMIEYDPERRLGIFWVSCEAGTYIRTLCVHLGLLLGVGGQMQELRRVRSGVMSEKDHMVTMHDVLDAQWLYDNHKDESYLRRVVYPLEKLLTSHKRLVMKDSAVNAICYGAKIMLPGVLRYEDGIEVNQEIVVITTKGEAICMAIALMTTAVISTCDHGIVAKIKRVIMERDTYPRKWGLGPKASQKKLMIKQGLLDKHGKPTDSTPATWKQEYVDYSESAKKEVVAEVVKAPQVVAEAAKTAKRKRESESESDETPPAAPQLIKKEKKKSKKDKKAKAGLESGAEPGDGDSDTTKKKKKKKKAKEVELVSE
T1 sequence (Q9NPE3 whole entry partner): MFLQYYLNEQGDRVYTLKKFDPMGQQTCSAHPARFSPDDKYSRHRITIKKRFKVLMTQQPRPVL
T1 sequence (Q9NX24 whole entry partner): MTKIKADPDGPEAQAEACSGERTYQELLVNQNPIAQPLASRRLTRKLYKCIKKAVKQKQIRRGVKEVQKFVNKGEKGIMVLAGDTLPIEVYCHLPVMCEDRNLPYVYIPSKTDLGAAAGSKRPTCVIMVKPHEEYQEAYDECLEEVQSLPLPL
T1 sequence (Q9NY12 whole entry partner): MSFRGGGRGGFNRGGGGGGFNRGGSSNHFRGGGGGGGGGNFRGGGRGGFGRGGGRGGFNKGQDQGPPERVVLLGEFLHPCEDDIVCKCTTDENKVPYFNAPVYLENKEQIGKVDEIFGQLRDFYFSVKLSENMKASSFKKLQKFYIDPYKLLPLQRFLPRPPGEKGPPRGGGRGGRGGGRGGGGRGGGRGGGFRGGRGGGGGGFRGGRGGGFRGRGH
T1 sequence (Q9BUR4 whole entry partner): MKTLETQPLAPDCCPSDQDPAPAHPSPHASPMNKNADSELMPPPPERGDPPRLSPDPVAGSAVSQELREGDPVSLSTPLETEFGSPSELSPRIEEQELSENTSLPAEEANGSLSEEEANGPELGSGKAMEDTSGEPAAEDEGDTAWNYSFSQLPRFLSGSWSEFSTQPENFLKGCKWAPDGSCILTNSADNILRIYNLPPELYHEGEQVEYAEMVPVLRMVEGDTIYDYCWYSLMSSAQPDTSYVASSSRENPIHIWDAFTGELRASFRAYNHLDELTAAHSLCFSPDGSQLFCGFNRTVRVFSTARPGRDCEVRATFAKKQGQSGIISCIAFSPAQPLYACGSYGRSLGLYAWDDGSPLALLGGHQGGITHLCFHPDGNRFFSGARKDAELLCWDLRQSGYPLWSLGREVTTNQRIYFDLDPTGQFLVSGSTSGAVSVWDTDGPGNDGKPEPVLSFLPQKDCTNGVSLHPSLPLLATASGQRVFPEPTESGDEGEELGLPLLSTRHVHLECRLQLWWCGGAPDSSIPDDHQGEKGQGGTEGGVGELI

O=C1OC[C@H](Cc2cccc(O)c2)[C@H]1Cc1cccc(O)c1 (racemic) [Enterolactone, reference compound]
IC50 ([1]; MCF7, 24 h): > 40 µM
IC50 ([1]; MCF7, 48 h): > 40 µM
IC50 ([1]; MCF7, 72 h): > 40 µM
telomerase activity following treatment as compared to control (untreated) groups ([1]; MCF7, Q-TRAP): no significant difference in telomerase activity
Telomerase Activity RTA (%) ([2]; PC3, 2.5 μM, 24 Hours): 61.02%
Telomerase Activity RTA (%) ([2]; PC3, 2.5 μM, 48 Hours): 3.50%
Telomerase Activity RTA (%) ([2]; PC3, 2.5 μM, 72 Hours): 13.88%
Telomerase Activity RTA (%) ([2]; PC3, 5 μM, 24 Hours): 55.90%
Telomerase Activity RTA (%) ([2]; PC3, 5 μM, 48 Hours): 3.31%
Telomerase Activity RTA (%) ([2]; PC3, 5 μM, 72 Hours): 10.65%
Telomerase Activity RTA (%) ([2]; PC3, 10 μM, 24 Hours): 62.45%
Telomerase Activity RTA (%) ([2]; PC3, 10 μM, 48 Hours): 17.89%
Telomerase Activity RTA (%) ([2]; PC3, 10 μM, 72 Hours): 12.63%
Telomerase Activity RTA (%) ([2]; PC3, 20 μM, 24 Hours): 56.77%
Telomerase Activity RTA (%) ([2]; PC3, 20 μM, 48 Hours): 25.39%
Telomerase Activity RTA (%) ([2]; PC3, 20 μM, 72 Hours): 5.15%
Telomerase Activity RTA (%) ([2]; PC3, 40 μM, 24 Hours): 43.75%
Telomerase Activity RTA (%) ([2]; PC3, 40 μM, 48 Hours): 70.42%
Telomerase Activity RTA (%) ([2]; PC3, 40 μM, 72 Hours): 6.57%
IC50 ([2]; PC3, 24 h): 21.9 µM
telomerase activity levels of treated groups compared to control ([2]; PC3, 24 hours): lower telomerase activity levels compared to control
Significance of RTA difference vs. control ([2]; PC3, 24 hours, 2.5 μM): No
Significance of RTA difference vs. control ([2]; PC3, 24 hours, 5 μM): No
Significance of RTA difference vs. control ([2]; PC3, 24 hours, 10 μM): No
Significance of RTA difference vs. control ([2]; PC3, 24 hours, 20 μM): No
Significance of RTA difference vs. control ([2]; PC3, 24 hours, 40 μM): Yes (*) (Yes (*): p < 0.05)
IC50 ([2]; PC3, 48 h): 0.05 µM
telomerase activity levels of treated groups compared to control ([2]; PC3, 48 hours): four treated groups presented a reduction in RTA
Significance of RTA difference vs. control ([2]; PC3, 48 hours, 2.5 μM): Yes (***) (Yes (***): p < 0.001)
Significance of RTA difference vs. control ([2]; PC3, 48 hours, 5 μM): Yes (***) (Yes (***): p < 0.001)
Significance of RTA difference vs. control ([2]; PC3, 48 hours, 10 μM): Yes (**) (Yes (**): p < 0.01)
Significance of RTA difference vs. control ([2]; PC3, 48 hours, 20 μM): Yes (**) (Yes (**): p < 0.01)
Significance of RTA difference vs. control ([2]; PC3, 48 hours, 40 μM): No
IC50 ([2]; PC3, 72 h): 10.7 µM
telomerase activity levels of treated groups compared to control ([2]; PC3, 72 hours): no significant differences were detected between control and treated groups
Significance of RTA difference vs. control ([2]; PC3, 72 hours, 2.5 μM): No
Significance of RTA difference vs. control ([2]; PC3, 72 hours, 5 μM): No
Significance of RTA difference vs. control ([2]; PC3, 72 hours, 10 μM): No
Significance of RTA difference vs. control ([2]; PC3, 72 hours, 20 μM): No
Significance of RTA difference vs. control ([2]; PC3, 72 hours, 40 μM): No
